Experimental data: patent publication US20050256309A1, “Tri-and bi-cyclic heteroaryl histamine-3 receptor ligands” (priority 2004, published 2005)
Counter-ions that a name gives are not always drawn.

Cc1nc2cc(-c3ccc4nc(CCN5CCC[C@H]5C)ccc4c3)ccc2s1 (as salt: hydrochloride) [Example 14, 6-(2-Methyl-benzothiazol-5-yl)-2-[2-(2R-methyl-pyrrolidin-1-yl)-ethyl]-quinoline]
melting point: 182 to 183 °C
